pEC50, pIC50: −log10 of the molar value.
Tests used:
[1] = biological target: T1, human PTGR2 (Homo sapiens (Human), UniProt Q8N8N7); test: In vitro PTGR2 enzyme activity assay (NADPH decrease, Glo-NADPH luminescence); type: biochemical; details: 15-keto-PGE2 20 μM, NADPH 20 μM, pH 7.3
Experimental: In vitro enzyme activity was measured to determine the half maximal inhibitory concentration (IC50) of compounds of this invention as PTGR2 inhibitors. The reduction of 15-keto-PGE2 by PTGR2 requires NADPH. The decrease of NADPH during the reduction reaction indicates […] of PTGR2 and thus is used to calculate the IC50 of a PTGR2 inhibitor. […] The resultant mixture was pre-incubated at room temperature for 15 minutes. After the incubation, 15-keto-PGE2 was added to a final concentration of 20 μM, together with NADPH (20 μM, final concentration) and a Glo-NADPH reagent (commercially available from Promega Corporation, Madison, Wis.).

[2] = biological target: T1, human PTGR2; test: Cell-based GAL4-PPAR luciferase reporter assay in HEK293T cells transfected with human PTGR2; details: UASG reporter, GAL4-PPAR and human PTGR2-Tag vectors, luciferase normalized to TK-Rluc
Experimental: HEK293T cells were seeded at 1×10^5 cells/well in a 24-well plate. […] Cells were treated and harvested in two batches, one after 24 hours and another after 48 hours. The luciferase activity was measured by a Luc-Pair™ Duo-Luciferase HS Assay Kit (commercially available from Promega Corporation) and normalized to the TK-Rluc reporter signal, which was recorded and used to calculate the EC50 value of a PTGR2 inhibitor.

T1 sequence (Q8N8N7 whole entry): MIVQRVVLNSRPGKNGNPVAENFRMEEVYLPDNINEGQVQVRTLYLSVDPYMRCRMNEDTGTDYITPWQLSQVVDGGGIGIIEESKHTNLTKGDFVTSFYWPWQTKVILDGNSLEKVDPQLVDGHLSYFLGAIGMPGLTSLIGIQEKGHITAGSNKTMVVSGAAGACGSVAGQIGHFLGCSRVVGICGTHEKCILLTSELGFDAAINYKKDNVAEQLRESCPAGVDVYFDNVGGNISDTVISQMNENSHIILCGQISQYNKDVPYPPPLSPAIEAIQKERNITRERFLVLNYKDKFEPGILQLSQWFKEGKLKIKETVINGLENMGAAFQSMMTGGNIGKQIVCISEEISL

| pIC50 [1] | pEC50 [2] | Structure (SMILES) |
| --- | --- | --- |
| 7.63 | 6.28 | Cc1[nH]c2nc(CN3CCN(c4nccs4)CC3)nn2c(=O)c1Cc1cccc(Cl)c1 [Compound 26, 6-(3-chlorobenzyl)-5-methyl-2-((4-(thiazol-2-yl)piperazin-1-yl)methyl)-[1,2,4]triazolo[1,5-a] pyrimidin-7(3H)-one] |
| 7.07 | 6.97 | CCCc1cc(=O)[nH]c(SCC(=O)N2CCN(c3ccccc3OC)[C@@H](C)C2)n1 [Compound 28, (S)-2-((2-(4-(2-methoxyphenyl)-3-methylpiperazin-1-yl)-2-oxoethyl)thio)-6-propylpyrimidin-4(3H)-one] |
| 7.76 | 6.79 | Cc1[nH]c2nc(C(C)N3CCN(c4ccccc4)CC3)nn2c(=O)c1Cc1ccc(Cl)cc1 (centres unmarked) [Compound 20, 6-(4-chlorobenzyl)-5-methyl-2-(1-(4-phenylpiperazin-1-yl)ethyl)-[1,2,4]triazolo[1,5-a]pyrimidin-7(4H)-one] |
| 7.50 | 6.61 | Cc1[nH]c2nc(C(C)N3CCN(c4ccccc4)[C@H](C)C3)nn2c(=O)c1Cc1ccc(F)cc1 (stereo partly drawn) [Compound 54, 6-(4-fluorobenzyl)-5-methyl-2-(1-((R)-3-methyl-4-phenylpiperazin-1-yl)ethyl)-[1,2,4]triazolo [1,5-a]pyrimidin-7(4H)-one] |
| 9.30 | 6.76 | COc1ccccc1N1CCN(Cc2nc3[nH]c(C)c(Cc4cccc(Cl)c4)c(=O)n3n2)CC1 [Compound 32, 6-(3-chlorobenzyl)-2-((4-(2-methoxyphenyl)piperazin-1-yl)methyl)-5-methyl-[1,2,4]triazolo[1,5-a]pyrimidin-7(3H)-one] |
| 7.09 | 6.78 | CCOc1ccccc1N1CCN(C(=O)CSc2nc(C(C)C)cc(=O)[nH]2)CC1 [Compound 63, 2-((2-(4-(2-ethoxyphenyl)piperazin-1-yl)-2-oxoethyl)thio)-6-isopropylpyrimidin-4(3H)-one] |
| 7.22 | 6.37 | Cc1[nH]c2nc(C=C3CCN(c4ccccc4)CC3)nn2c(=O)c1Cc1cccc(Cl)c1 [Compound 34, 6-(3-chlorobenzyl)-5-methyl-2-((1-phenylpiperidin-4-ylidene)methyl)-[1,2,4]triazolo[1,5-a] pyrimidin-7(4H)-one] |
| 7.06 | 6.92 | CCCc1cc(=O)[nH]c(SCC(=O)N2CCN(c3nccs3)CC2)n1 [Compound 46, 2-((2-oxo-2-(4-(thiazol-2-yl)piperazin-1-yl)ethyl)thio)-6-propylpyrimidin-4(3H)-one] |
| 7.28 | 6.68 | COc1ccccc1N1CCN(C(=O)CSc2nc(C(C)C)cc(=O)[nH]2)C[C@H]1C [Compound 53, (R)-6-isopropyl-2-((2-(4-(2-methoxyphenyl)-3-methylpiperazin-1-yl)-2-oxoethyl)thio)pyrimidin-4(3H)-one] |

Further lines, the compound ahead of its results:

| Structure (SMILES) | pIC50 [1] | pEC50 [2] |
| --- | --- | --- |
| COc1ccc(Cc2c(C)[nH]c3nc(C(C)N4CCN(c5ccccc5)CC4)nn3c2=O)cc1F (centres unmarked) [Compound 15, 6-(3-fluoro-4-methoxybenzyl)-5-methyl-2-(1-(4-phenylpiperazin-1-yl)ethyl)-[1,2,4]triazolo[1,5-a]pyrimidin-7(4H)-one] | 7.47 | 7.19 |
| CC(C)c1cc(=O)[nH]c(SCC(=O)N2CCN(c3nccs3)[C@@H](C)C2)n1 [Compound 2, (S)-6-isopropyl-2-((2-(3-methyl-4-(thiazol-2-yl)piperazin-1-yl)-2-oxoethyl)thio)pyrimidin-4(3H)-one] | 7.37 | 6.95 |
| COc1ccccc1N1CCN(Cc2nc3[nH]c(C)c(Cc4ccc(Cl)cc4)c(=O)n3n2)CC1 [Compound 1, 6-(4-chlorobenzyl)-2-((4-(2-methoxyphenyl)piperazin-1-yl)methyl)-5-methyl-[1,2,4]triazolo[1,5-a]pyrimidin-7(4H)-one] | 9.70 | 6.06 |
| COc1ccc(Cc2c(C)[nH]c3nc(C(C)N4CCN(c5ccccc5)CC4)nn3c2=O)c(F)c1 (centres unmarked) [Compound 5, 6-(2-fluoro-4-methoxybenzyl)-5-methyl-2-(1-(4-phenylpiperazin-1-yl)ethyl)-[1,2,4]triazolo[1,5-a]pyrimidin-7(4H)-one] | 7.90 | 7.39 |
| Cc1[nH]c2nc(C(C)N3CCN(c4ccccc4)CC3)nn2c(=O)c1Cc1cccc(C(F)(F)F)c1 (centres unmarked) [Compound 13, 5-methyl-2-(1-(4-phenylpiperazin-1-yl)ethyl)-6-(3-(trifluoromethyl)benzyl)-[1,2,4]triazolo[1,5-a]pyrimidin-7(4H)-one] | 7.21 | 7.72 |
| Cc1[nH]c2nc(C(C)N3CCN(c4ccccc4)CC3)nn2c(=O)c1Cc1cccc(F)c1 (centres unmarked) [Compound 10, 6-(3-fluorobenzyl)-5-methyl-2-(1-(4-phenylpiperazin-1-yl)ethyl)-[1,2,4]triazolo[1,5-a]pyrimidin-7(4H)-one] | 8.10 | 7.11 |
| Cc1[nH]c2nc(CN3CCN(c4ccccc4)CC3)nn2c(=O)c1Cc1cccc(Cl)c1 [Compound 12, 6-(3-chlorobenzyl)-5-methyl-2-((4-phenylpiperazin-1-yl)methyl)-[1,2,4]triazolo[1,5-a]pyrimidin-7(3H)-one] | 11.00 | 6.63 |
| COc1ccc(Cc2c(C)[nH]c3nc(C(C)N4CCN(c5ccccc5)CC4)nn3c2=O)cc1 (centres unmarked) [Compound 18, 6-(4-methoxybenzyl)-5-methyl-2-(1-(4-phenylpiperazin-1-yl)ethyl)-[1,2,4]triazolo[1,5-a] pyrimidin-7(4H)-one] | 8.77 | 6.55 |
| Cc1[nH]c2nc(CN3CCN(c4ccccc4)CC3)nn2c(=O)c1Cc1cccc(Cl)c1F [Compound 6, 6-(3-chloro-2-fluorobenzyl)-5-methyl-2-((4-phenylpiperazin-1-yl)methyl)-[1,2,4]triazolo[1,5-a]pyrimidin-7(3H)-one] | 10.70 | 6.52 |
| Cc1[nH]c2nc(C(C)N3CCN(c4ccccc4)CC3)nn2c(=O)c1Cc1ccc(F)cc1 (centres unmarked) [Compound 19, 6-(4-fluorobenzyl)-5-methyl-2-(1-(4-phenylpiperazin-1-yl)ethyl)-[1,2,4]triazolo[1,5-a]pyrimidin-7(4H)-one] | 8.05 | 7.24 |
| Cc1[nH]c2nc(C(C)N3CCN(c4ccccc4)CC3)nn2c(=O)c1Cc1cccc(Cl)c1 (centres unmarked) [Compound 11, 6-(3-chlorobenzyl)-5-methyl-2-(1-(4-phenylpiperazin-1-yl)ethyl)-[1,2,4]triazolo[1,5-a]pyrimidin-7(3H)-one] | 7.27 | 7.21 |
| Cc1[nH]c2nc(C(C)N3CCN(c4ccccc4)CC3)nn2c(=O)c1Cc1cc(F)c(F)cc1F (centres unmarked) [Compound 7, 5-methyl-2-(1-(4-phenylpiperazin-1-yl)ethyl)-6-(2,4,5-trifluorobenzyl)-[1,2,4]triazolo[1,5-a]pyrimidin-7(4H)-one] | 8.39 | 8.15 |
| Cc1ccc(Cc2c(C)[nH]c3nc(C(C)N4CCN(c5ccccc5)CC4)nn3c2=O)cc1 (centres unmarked) [Compound 17, 5-methyl-6-(4-methylbenzyl)-2-(1-(4-phenylpiperazin-1-yl)ethyl)-[1,2,4]triazolo[1,5-a] pyrimidin-7(4H)-one] | 7.92 | 6.98 |
